The source of these data is patent US20240182445A1 (ONO PHARMACEUTICAL CO., LTD., priority 2019, published 2024).

As usually defined, the IC50 is the concentration needed to halve the response being measured.

One assay deals with T1, human TREK-1 (Homo sapiens, UniProt O95069).
T1 construct: expressed in transfected cells
T1 sequence (O95069 1-426): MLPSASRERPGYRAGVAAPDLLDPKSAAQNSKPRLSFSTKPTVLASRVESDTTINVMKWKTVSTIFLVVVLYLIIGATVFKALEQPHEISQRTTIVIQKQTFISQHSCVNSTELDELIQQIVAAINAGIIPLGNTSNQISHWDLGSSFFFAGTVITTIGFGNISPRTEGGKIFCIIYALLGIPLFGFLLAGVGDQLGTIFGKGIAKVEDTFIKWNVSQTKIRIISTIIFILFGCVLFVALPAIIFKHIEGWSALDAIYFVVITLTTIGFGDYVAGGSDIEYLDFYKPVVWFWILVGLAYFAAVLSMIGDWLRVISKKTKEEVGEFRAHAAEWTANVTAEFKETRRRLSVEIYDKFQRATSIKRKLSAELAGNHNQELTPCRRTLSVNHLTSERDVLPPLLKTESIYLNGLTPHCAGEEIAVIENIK
The assay can be described thus: TREK-1 Thallium (Tl+) flux assay, Method 1. The conditions noted are these: TREK-1 Thallium (Tl+) flux assay, Method 1. In kind it is cell-based. The method, boiled down: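 CHO-K1 cells stably expressing human TREK-1, loaded with Thallos dye, received compound or 0.3% DMSO vehicle for 10 min before thallium stimulus buffer. ΔRatio is fluorescence at 25 s after thallium addition over mean pre-addition fluorescence; % inhibition calculated from it.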
For the compound `COc1ncc(-c2cnc(NC(=O)c3c(Cl)cnn3C3CCN(C(C)=O)CC3)c(C)c2)cc1Cl` [Compound 425, 1-(1-acetylpiperidin-4-yl)-4-chloro-N-(5′-chloro-6′-methoxy-5-methyl-[3,3′-bipyridin]-6-yl)-1H-pyrazole-5-carboxamide], the half-inhibitory concentration (IC50) came out at 5050 nM.

Consider `Cc1cc(OCc2ccccc2)ccc1NC(=O)c1c(Cl)cnn1C1CCN(C(=O)CC(C)C)CC1` [Compound 401, N-(4-(benzyloxy)-2-methylphenyl)-4-chloro-1-(1-(3-methylbutanoyl)piperidin-4-yl)-1H-pyrazole-5-carboxamide], for which inhibition was half-maximal at 1780 nM (IC50).

In the case of `CC(=O)N1CCC(n2ncc(Cl)c2C(=O)Nc2ncc(OCc3ccccc3)cc2C)CC1` [Compound 393, 1-(1-acetylpiperidin-4-yl)-N-(5-(benzyloxy)-3-methylpyridin-2-yl)-4-chloro-1H-pyrazole-5-carboxamide], the IC50 came to 1270 nM.

Still in this assay, the particulars now being: TREK-1 Thallium (Tl+) flux assay; no *^12 (Method 2) mark on these rows.
For `Cc1cc(C#Cc2ccc(F)cc2)cnc1NC(=O)c1c(Cl)nn(C)c1-c1ccc2c(cnn2C)c1` [Compound 342, 3-chloro-N-(5-((4-fluorophenyl)ethynyl)-3-methylpyridin-2-yl)-1-methyl-5-(1-methyl-1H-indazol-5-yl)-1H-pyrazole-4-carboxamide], half-maximal inhibition (IC50) was put at 750 nM.

`N#CC1CC(n2ncc(Cl)c2C(=O)Nc2c(F)cc(C#Cc3ccccc3)cc2F)C1` (stereo not shown) [Compound 245, 4-chloro-1-(3-cyanocyclobutyl)-N-(2,6-difluoro-4-(phenylethynyl)phenyl)-1H-pyrazole-5-carboxamide]: 390 nM corresponded to half-maximal inhibition (IC50).

For `CC(=O)N1CCC(CCn2ncc(Cl)c2C(=O)Nc2ncc(C#Cc3cccs3)cc2F)CC1` [Compound 311, 1-(2-(1-acetylpiperidin-4-yl)ethyl)-4-chloro-N-(3-fluoro-5-(thiophen-2-ylethynyl)pyridin-2-yl)-1H-pyrazole-5-carboxamide], the IC50 stood at 590 nM.

For `Cc1cc(C#Cc2ccc(F)cc2)cnc1NC(=O)c1c(Cl)cnn1CC1CCN(C(=O)C(C)C)CC1C` (stereo not shown) [Compound 284, 4-chloro-N-(5-((4-fluorophenyl)ethynyl)-3-methylpyridin-2-yl)-1-((1-isobutyryl-3-methylpiperidin-4-yl)methyl)-1H-pyrazole-5-carboxamide], the IC50 worked out at 490 nM.

`Cc1cc(C#Cc2ccccc2)cnc1NC(=O)c1c(Cl)cnn1[C@H]1C[C@H](NC(=O)OC(C)(C)C)C1` [Compound 292, tert-butyl (trans-3-(4-chloro-5-((3-methyl-5-(phenylethynyl)pyridin-2-yl)carbamoyl)-1H-pyrazol-1-yl)cyclobutyl)carbamate] gave a 50% inhibitory concentration (IC50) of 520 nM.

In turn, `CC(=O)N1CC2CC(C1)C2Cn1ncc(Cl)c1C(=O)Nc1ncc(C#Cc2ccccc2)cc1C` (stereo not shown) [Compound 370, 1-((3-acetyl-3-azabicyclo[3.1.1]heptan-6-yl)methyl)-4-chloro-N-(3-methyl-5-(phenylethynyl)pyridin-2-yl)-1H-pyrazole-5-carboxamide] showed a 50% inhibitory concentration (IC50) of 980 nM.

With `Cc1cc(OCc2ccccc2)ccc1NC(=O)c1c(Cl)cnn1[C@H]1CC[C@@H](NC(=O)C2COCCO2)CC1` (stereo partly drawn) [Compound 380, 1-(cis-4-(1,4-dioxane-2-carboxamido)cyclohexyl)-N-(4-(benzyloxy)-2-methylphenyl)-4-chloro-1H-pyrazole-5-carboxamide], the 50% inhibitory concentration (IC50) stood at 380 nM.

Take `CCN1CC(n2ncc(Cl)c2C(=O)Nc2ncc(C#Cc3ccccc3)cc2F)C1` [Compound 373, 4-chloro-1-(1-ethylazetidin-3-yl)-N-(3-fluoro-5-(phenylethynyl)pyridin-2-yl)-1H-pyrazole-5-carboxamide hydrate]: the IC50 was determined as 1100 nM.

As for `CC(C)C(=O)N1CCC[C@H](Cn2ncc(Cl)c2C(=O)Nc2ncc(C#Cc3ccccc3)cc2F)C1` [Compound 288, (S)-4-chloro-N-(3-fluoro-5-(phenylethynyl)pyridin-2-yl)-1-((1-isobutyrylpiperidin-3-yl)methyl)-1H-pyrazole-5-carboxamide], inhibition was half-maximal at 500 nM (IC50).

For `Cc1cc(C#Cc2cccc(F)c2)cnc1NC(=O)c1c(Cl)cnn1C1CCN(C(=O)C(C)(C)C)CC1` [Compound 205, 4-chloro-N-(5-((3-fluorophenyl)ethynyl)-3-methylpyridin-2-yl)-1-(1-pivaloylpiperidin-4-yl)-1H-pyrazole-5-carboxamide], the half-inhibitory concentration (IC50) is 310 nM.

In turn, `Cc1cc(C#Cc2ccccc2)cnc1NC(=O)c1c(Cl)cnn1CC1(C#N)CCCC1` [Compound 242, 4-chloro-1-((1-cyanocyclopentyl)methyl)-N-(3-methyl-5-(phenylethynyl)pyridin-2-yl)-1H-pyrazole-5-carboxamide] had a half-inhibitory concentration (IC50) of 380 nM.

The compound `CC1(Cn2ncc(Cl)c2C(=O)Nc2ncc(C#Cc3ccccc3)cc2F)CCCO1` (stereo not shown) [Compound 279, 4-chloro-N-(3-fluoro-5-(phenylethynyl)pyridin-2-yl)-1-((2-methyltetrahydrofuran-2-yl)methyl)-1H-pyrazole-5-carboxamide] registered an IC50 of 490 nM.

`Cc1cc(C#Cc2ccccc2)cc(F)c1NC(=O)c1c(Cl)cnn1C[C@@H]1CCOC1` [Compound 200, (S)-4-chloro-N-(2-fluoro-6-methyl-4-(phenylethynyl)phenyl)-1-((tetrahydrofuran-3-yl)methyl)-1H-pyrazole-5-carboxamide]: 310 nM corresponded to half-maximal inhibition (IC50).

In turn, `Cc1cc(C#Cc2ccccc2)cnc1NC(=O)c1c(Cl)cnn1[C@H]1C[C@@H]2CN(C(=O)C3CC3)C[C@@H]2C1` [Compound 282, 4-chloro-1-[(3aR,5s,6aS)-2-(cyclopropanecarbonyl)octahydro-cyclopenta[c]pyrrol-5-yl]-N-[3-methyl-5-(phenylethynyl)pyridin-2-yl]-1H-pyrazole-5-carboxamide] displayed an IC50 of 490 nM.

Still in this assay, the particulars now being: TREK-1 Thallium (Tl+) flux assay; values without footnote *12 are Method 1.
The compound `CC(=O)N1CC(n2ncc(Cl)c2C(=O)Nc2ncc(C#Cc3ccccc3)cc2C)C1` [Compound 122, 1-(1-acetylazetidin-3-yl)-4-chloro-N-(3-methyl-5-(phenylethynyl)pyridin-2-yl)-1H-pyrazole-5-carboxamide] returned a half-maximal inhibitory concentration (IC50) of 210 nM.

In the case of `CC(=O)N1CC[C@H](n2ncc(Cl)c2C(=O)Nc2ncc(C#Cc3ccccc3)cc2F)C1` [Compound 129, (S)-1-(1-acetylpyrrolidin-3-yl)-4-chloro-N-(3-fluoro-5-(phenylethynyl)pyridin-2-yl)-1H-pyrazole-5-carboxamide], the half-maximal inhibitory concentration (IC50) came out at 220 nM.

As to `CCNC(=O)N1CCC(n2ncc(Cl)c2C(=O)Nc2ncc(C#Cc3ccc(F)cc3)cc2C)CC1` [Compound 92, 4-(4-chloro-5-((5-((4-fluorophenyl)ethynyl)-3-methylpyridin-2-yl)carbamoyl)-1H-pyrazol-1-yl)-N-ethylpiperidine-1-carboxamide], the IC50 was 180 nM.

`CC(=O)N1CCC(Cn2ncc(Cl)c2C(=O)Nc2ncc(C#Cc3ccccc3)cc2C)C(F)(F)C1` (stereo not shown) [Compound 98, 1-((1-acetyl-3,3-difluoropiperidin-4-yl)methyl)-4-chloro-N-(3-methyl-5-(phenylethynyl)pyridin-2-yl)-1H-pyrazole-5-carboxamide] showed an IC50 of 180 nM.

`O=C(Nc1c(F)cc(C#Cc2ccccc2)cc1F)c1c(Cl)cnn1C[C@H]1CCOC1` [Compound 162, (R)-4-chloro-N-(2,6-difluoro-4-(phenylethynyl)phenyl)-1-((tetrahydrofuran-3-yl)methyl)-1H-pyrazole-5-carboxamide] gave an IC50 of 260 nM.

For the compound `CC(=O)N1CCCC(Cn2ncc(Cl)c2C(=O)Nc2ncc(C#Cc3ccccc3)cc2C)C1` (stereo not shown) [Compound 176, 1-((1-acetylpiperdin-3-yl)methyl)-4-chloro-N-(3-methyl-5-(phenylethynyl)pyridin-2-yl)-1H-pyrazole-5-carboxamide], it took 270 nM to reach half-maximal inhibition (IC50).

`CC(=O)N1CCC(CCn2ncc(Cl)c2C(=O)Nc2ncc(C#Cc3ccccc3)cc2F)CC1` [Compound 102, 1-(2-(1-acetylpiperidin-4-yl)ethyl)-4-chloro-N-(3-fluoro-5-(phenylethynyl)pyridin-2-yl)-1H-pyrazole-5-carboxamide] came in with an IC50 of 190 nM.

For `Cc1cc(C#Cc2ccccc2)cnc1NC(=O)c1c(Cl)cnn1CC1CCN(C(=O)OC(C)(C)C)CC1` [Compound 186, tert-butyl 4-((4-chloro-5-((3-methyl-5-(phenylethynyl)pyridin-2-yl)carbamoyl)-1H-pyrazol-1-yl)methyl)piperidine-1-carboxylate], the half-inhibitory concentration (IC50) is 290 nM.

`Cc1cc(C#Cc2ccccc2)cnc1NC(=O)c1c(Cl)cnn1C[C@@H]1CCOC1` [Compound 160, (S)-4-chloro-N-(3-methyl-5-(phenylethynyl)pyridin-2-yl)-1-((tetrahydrofuran-3-yl)methyl)-1H-pyrazole-5-carboxamide] came in with an IC50 of 260 nM.

In turn, `CC(=O)N1CCC(n2ncc(Cl)c2C(=O)Nc2ncc(C#Cc3ccccc3)cc2F)C1` (stereo not shown) [Compound 121, 1-(1-acetylpyrrolidin-3-yl)-4-chloro-N-(3-fluoro-5-(phenylethynyl)pyridin-2-yl)-1H-pyrazole-5-carboxamide] came in with an IC50 of 210 nM.

`CC(=O)N1CCC(n2ncc(Cl)c2C(=O)Nc2c(C)cc(C#Cc3ccccc3)cc2F)CC1` [Compound 37, 1-(1-acetylpiperidin-4-yl)-4-chloro-N-(2-fluoro-6-methyl-4-(phenylethynyl)phenyl)-1H-pyrazole-5-carboxamide] displayed a concentration for half-maximal inhibition (IC50) of 120 nM.
